The source of these data is patent US20050239723A1, “Compositions and methods useful for treatment of acne” (priority 2004, published 2005).

Series [1] concerns Propionibacterium acnes ATCC #11827. Put plainly: Antimicrobial susceptibility testing (MIC) by the agar dilution method. Format: cell-based. The settings on record: Cutibacterium acnes.
Another series deals with skin. Put plainly: Cumulative irritation study (cream vehicle). Format: in vivo. The following applies: different (cream) vehicle.
Series [2] has as its system patients with mild to moderate acne vulgaris. Put plainly: Open label study of NV-02 in the topical treatment of mild to moderate acne vulgaris. Format: in vivo, human. The settings on record: after topical NV-02 twice daily; varied between and within patients. How it is done:
The results were from a study of twenty patients (5 males, 15 females) who were enrolled with varying ethnicity: Caucasian(12), African American (6), Hispanic (1), and Asian (1). The age range was from 20 to 48 years (mean 29.6 years). All subjects received open-label PCL-016 10% gel to be applied twice daily to the face over 12 weeks.
The experiment was performed as indicated for the per protocol analysis described under FIG. 1 above.
22, 2002 • Date of last completed: May 2, 2003 • Methodology: Open label study • Number of patients (planned and analyzed): 15 patients planned, 20 enrolled, 15 completed. • Diagnosis and main criteria for inclusion: mild to moderate acne vulgaris • Test product, dose and mode of administration, batch number: NV-02 applied twice daily to affected areas of the face; Novactyl lot number 155 • Duration of treatment: twice daily for 3 months • Criteria for evaluation: • Efficacy: Total lesion counts, inflammatory lesion count, non-inflammatory lesion count, and Cunliffe's grade, FDA scale • Safety: Adverse events, PCL-0 16 plasma levels, serum chemistry, complete blood count • Statistical Methods: descriptive statistics of patient population, patient demographics, and lesion counts, etc.; changes in lesion counts relative to baseline; percent reduction in lesion counts. […]

For a further series, the system named is acne lesions. The settings on record: cited from earlier work.

In brackets after ≈: the same amount, converted by molar mass. Like-named read-outs stand apart in the source and are kept apart here.

Regarding `O=C(O)c1ccccn1` [Picolinic acid, pyridine-2-carboxylic acid], the MIC in series [1] (ATCC11827, P. acnes ATCC #11827, Supplemented Brucella agar with blood, 48-72 hours at 35±2° C., anaerobic, read-out: Minimum Inhibitory Concentration (MIC): lowest concentration that visibly prevented growth) amounted to 500 µg/mL (≈ 4060 µM). Also, in the series on skin, the “risk of topical irritation to the skin” value is recorded as “low risk of topical irritation”. Moreover, the “absorption into the systemic circulation (plasma levels)” value in series [2] is given as “Small amounts”.

Take `CC1=C(/C=C/C(C)=C/C=C/C(C)=C/C(=O)O)C(C)(C)CCC1` [Tretinoin]: in the series on acne lesions (topical agent on the market), the “reduction of total lesions counts” value is given as 32-45%. In the series with acne lesions (topical), the photosensitization entry is “photosensitizing”.

Regarding `CCCCc1ccc(C(=O)O)nc1` [fusaric acid], the MIC in series [1] (ATCC11827, read-out: Minimum Inhibitory Concentration (MIC): lowest concentration that visibly prevented growth) stood at 100 µg/mL (≈ 558 µM).
